Data as given in patent US20210087248A1, “MODIFIED FIBROBLAST GROWTH FACTOR 1 (FGF-1) POLYPEPTIDES WITH INCREASED BINDING AFFINITY FOR HEPARIN AND ASSOCIATED METHODS” (Florida State University Research Foundation, Inc., priority 2014, published 2021).

Experiments:
Assay in all cases: Heparin affinity study with isothermal titration calorimetry (ITC), sucrose octasulfate titration
Assay type in all cases: binding
Settings in all cases: 25 °C
[1] = target: T1, human FGF-1 wild-type, 140 amino acid form, N-terminal six His tag (hisFGF wild-type), SEQ ID NO: 1 (Homo sapiens, UniProt P05230)
T1 construct: six His tag (N); made in house; host or cells: pET21a(+) vector; E. coli BL21(DE3) is stated for the mutants, inferred for the wild type

[2] = target: human FGF-1 wild-type, no histag (no histag FGF wild-type), SEQ ID NO: 1 (Homo sapiens, UniProt P05230)
[3] = target: T2, human FGF-1 variant S116K (Ser116Lys), N-terminal six His tag (hisFGF S116K), SEQ ID NO: 3 (Homo sapiens, UniProt P05230, S131K)
T2 construct: six His tag (N); made in house; host or cells: E. coli BL21(DE3), pET21a (+)
Description: (§1) A codon-optimized synthetic gene encoding 140 amino acids form of human FGF-1 (SEQ ID NO: 1) with an N-terminal six His tag was cloned into the pET21a (+) expression vector. The His tag has shown no influence upon stability, heparin affinity and mitogenic activity. Residue Ser116 inside of the heparin binding site of FGF-1 was mutated to Arginine (SEQ ID NO: 2) and Lysine (SEQ ID NO: 3) individually to increase potential ionic interactions with the sulfonate groups in HSGAG. This was achieved using a QUICKCHANGE site-directed mutagenesis protocol.
(§2) Each mutation was confirmed by DNA sequencing. The pET21a (+)/BL21(DE3) E. coli host expression system was used to express the FGF-1 heparin affinity mutants. The expressed polypeptide was purified via sequential nickel-nitrilotriacetic acid (Ni-NTA) column (Qiagen) and heparin Sepharose resin (GE Life Sciences, Pittsburgh Pa.). Previous studies of wild-type FGF-1 have shown that the above purification procedure results in protein >99% pure and appropriate for all biophysical studies.
(§3) Purified modified FGF-1 samples of SEQ ID NOs: 2 and 3 were dialyzed into 20 mM N-(2-acetamido) iminodiacetic acid (ADA), 100 mM NaCl, pH 7.4 for an ITC study. An iTC200 microcalorimeter (MicroCal) was used for data collection. […] The ITC running parameters were: 31 injections; first injection volume 0.5 μl and the rest of the injections 1 μl; temperature 25° C.; reference power 5. The titration curve after baseline subtraction was fitted with a single ligand-binding site model by manufacturer's software (MicroCal Origin). At least three independent trials were collected for each modified FGF-1 samples.

[4] = target: T3, human FGF-1 variant S116R (Ser116Arg), N-terminal six His tag (hisFGF S116R), SEQ ID NO: 2 (Homo sapiens, UniProt P05230, S131R)
T3 construct: six His tag (N); made in house; host or cells: E. coli BL21(DE3), pET21a (+)
Description: as §1, §2, §3

[5] = single ligand-binding site model

T3 sequence (P05230 16-155 S131R): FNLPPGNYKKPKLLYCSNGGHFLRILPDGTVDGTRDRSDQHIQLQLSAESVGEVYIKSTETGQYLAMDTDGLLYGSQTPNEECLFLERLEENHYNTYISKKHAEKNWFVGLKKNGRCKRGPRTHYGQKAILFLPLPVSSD
T2 sequence (P05230 16-155 S131K): as the sequence (P05230 16-155 S131R) above, with R116K counted along it
human FGF-1 wild-type, no histag (no histag FGF wild-type), SEQ ID NO: 1, sequence (P05230 16-155 limits assumed): as the sequence (P05230 16-155 S131R) above, with R116S counted along it
T1 sequence (P05230 16-155): as the sequence (P05230 16-155 S131R) above, with R116S counted along it

Kd ([1]; 20 mM ADA, 100 mM NaCl, pH 7.4): 3.94 ± 0.19 µM
ΔH ([1]; pH 7.4): (−7506) ± 95 cal/mol
ΔS ([1]; pH 7.4): (−0.44) ± 0.23 cal/mol/deg
N (site) [1, 5]: 0.917 ± 0.050
Kd ([2]; 20 mM ADA, 100 mM NaCl, pH 7.4): 3.85 ± 0.09 µM
ΔH ([2]; pH 7.4): (−6963) ± 65 cal/mol
ΔS ([2]; pH 7.4): 1.42 ± 0.18 cal/mol/deg
N (site) [2, 5]: 0.980 ± 0.035
Kd ([3]; 20 mM ADA, 100 mM NaCl, pH 7.4): 3.1 ± 0.47 µM
ΔH ([3]; pH 7.4): (−3339) ± 57 cal/mol
ΔS ([3]; pH 7.4): (−6.42) ± 3.04 cal/mol/deg
N (site) [3, 5]: 1.012 ± 0.014
Kd ([4]; 20 mM ADA, 100 mM NaCl, pH 7.4): 2.46 ± 0.25 µM
ΔH ([4]; pH 7.4): (−7081) ± 217 cal/mol
ΔS ([4]; pH 7.4): 1.84 ± 0.92 cal/mol/deg
N (site) [4, 5]: 0.942 ± 0.036
Compound: O=S(=O)(O)OC[C@H]1O[C@@](COS(=O)(=O)O)(O[C@H]2O[C@H](COS(=O)(=O)O)[C@@H](OS(=O)(=O)O)[C@H](OS(=O)(=O)O)[C@H]2OS(=O)(=O)O)[C@@H](OS(=O)(=O)O)[C@@H]1OS(=O)(=O)O [sucrose octasulfate]
